Assay results published in US20020156301A1, “Triphenylmethane derivatives and use thereof” (Sumitomo Chemical Co., Ltd., priority 1997, published 2002).
Marks after values point to notes of the source that are not given here.

What was measured:
[1] = test system: Rat osteoblastic cell line UMR 106; assay: Effects on osteoblast: ALP activity and TGFβ amount; assay type: cell-based; settings: two days, corrected for protein; for ALP activity, relative value considering the value for control as 1: UMR 106 cells; for TGFβ, relative value considering the value for control as 1: UMR 106 medium supernatant
Description: Rat osteoblastic cell line UMR 106 was subcultured in Eagle's MEM medium containing 10% fetal bovine serum (active charcoal-treated), inoculated in 6-well plates (φ 36 mm well) at a density of 20,000 cells/well, and cultured overnight in 2 ml/well of the same serum-containing Eagle's MEM medium at 37° C. in the presence of 5% CO2. On the following day, the medium was aspirated, and the wells were washed by adding 1 ml/well of serum-free Eagle's MEM medium supplemented with Supplement A (a solution of insulin, transferrin, and selenium; Gibco BRL). After aspirating the washings, 2 ml/well of serum-free Eagle's MEM medium supplemented with Supplement A was newly added, and the cultivation was further continued at 37° C. Two days after the medium exchange, the medium was aspirated from each well. Into the wells, 2 ml/well of serum-free Eagle's MEM medium containing Supplement A to which a solution of a test compound in DMSO (or DMSO alone) had been added and mixed was then added, and the cultivation was further continued at 37° C. Two days after the addition of compound, the medium was collected, centrifuged (14,000 rpm, 5 minutes), and the supernatant was aliquoted. To each 0.6 ml aliquot, 20 μl of 1N HCl was added, mixed and then they were stored with ice-cooling. On the other hand, the wells from which the medium had been removed were washed twice with PBS (−). After thoroughly removing the residual liquid, 0.5 ml/well of extra pure water was added, and the cells were harvested, and stored at −80° C. The ice-cold medium supernatant described above was neutralized with 1N NaOH, and 100 μl aliquot thereof was sampled, and used in quantifying TGFβ using an ELISA kit for TGFβ (Biochemical Research Institute, Morinaga Milk Industry Co. Ltd.). On the other hand, the frozen cells were thawed by bringing them to room temperature. The cell suspension thus obtained by thawing the frozen cells was then centrifuged (14,000 rpm, 5 minutes), and 50 μl of the supernatant was used in measurement of alkaline phosphatase (ALP) activity. ALP activity was measured according to the method of Lowry [J. Biol. Chem. vol. 207, 19-37 (1954)]. The samples remained without being used for measurements of TGFβ and ALP activity were used in quantification of protein according to the method of Lowry [J. Biol. Chem. vol. 193, 265-275 (1951)].
The relative values for the amount of TGFβ and the ALP activity after correcting for the amounts of protein are shown in Table 2.

ovariectomized rats = assay: Effects on ovariectomized rat: bone mineral density of tibial epiphysis; assay type: in vivo; settings: 17 administrations, average for 5-8 animals, OVX control 79.9
Source text: Six-weeks old female SD rats (Charles River Japan) were subjected to ovariectomy of right and left ovaries, after one-week pre-feeding. Firstly, the hairs around the both flanks of the rats were shaved away. After anesthetizing the rat with diethyl ether, the area around the flanks was disinfected, and incised about 1 cm below the last ribs. The ovaries and uterus were extracted along with fats through the incision, and the ovaries were excised after ligating between ovaries and uterus with suture. The uterus and fats were then returned into the abdomens, and the incision was sutured. For rats receiving mock operations, ovaries were extracted as described above, and then returned into the abdomens as they were without ligature and excision. The rats which received such operations were divided into groups of four animals, and each group was housed in a polypropylene cage, and fed with chow (CRF-1; Charles River Japan) and water ad libitum.
A compound was weighed out into a mortar, and the crystals were finely ground with a pestle. To the ground compound, 1% hydroxypropyl cellulose (HPC, 150-400 cP) was then added in small amounts while rubbing for suspending and mixing the compound to prepare an administration liquid having a given concentration of the compound. Such liquids for administration were newly prepared every week.
The weights of ovariectomized rats described above were measured at an interval of one week, and the doses of the above liquid for administration were determined based on the weights. The same doses were used for one week until the next weight measurement. Administration to rats was started at one week after the ovariectomy, and the above liquids for administration were orally administered 17 times in total to groups of 5-8 animals through a 2 ml volume syringe attached with a metal sonde and once a day at a frequency of 5 times a week. […] The bone mineral density of the tibial epiphysis proximal to the knee was measured by an area scanning method.

[2] = test system: α- and β-isoforms of human estrogen receptor; assay: Antiestrogenic activity: ERE-luciferase reporter in HeLa cells transfected with hERα or hERβ, with 17β-estradiol; assay type: cell-based; settings: relative luminescence for β-isoform divided by that for α-isoform, 17β-estradiol 100 pM (α), 1 nM (β)
Source text: cDNA fragments for α- and β-isoforms of human estrogen receptor were cloned from a human liver cDNA library (Toyobo Co, Ltd.) by RT-PCR using oligonucleotides having the following base sequences as primers. For cloning the a-isoform, oligonucleotides 5′-[…]-3′ and 5′-[…]-3′ were used, while oligonucleotides 5′-[…]-3′ and 5′-[…]-3′ were used for cloning the β-isoform. The CDNA fragments for the α- and β-isoforms obtained by the RT-PCR procedures were blunt-ended, and each inserted into a vector for expression pRc/RSV (Invitrogen) at its blunt-ended Hind III cleavage site to obtain expression plasmids pRc-RSV-hERα and pRc-RSV-hERβ. In addition, an oligonucleotide 5′-[…]-3′ comprising an estrogen response element was inserted into a vector pGV-P (Toyo Ink Mfg. Co., Ltd.) at the Sma I cleavage site to obtain a luciferase reporter plasmid pGV-ERE.
Separately, HeLa cells which had been subcultured in Eagle's MEM medium containing 10% (v/v) phenol red-free and active charcoal-treated serum were inoculated in 24-well plates (φ16 mm well) at a density of 40,000 cells/well, cultured for 24 hours at 37° C. in the presence of 5% CO2, and then the medium was exchanged with serum-free Eagle's MEM medium.
The above expression plasmid pRc-RSV-hERα or pRc-RSV-hERβ, and the luciferase reporter plasmid pGV-ERE incorporating the estrogen response element were transfected into the above HeLa cells using the lipofectin method. Specifically, 0.3 μg of the expression plasmid pRc-RSV-hERα or pRc-RSV-hERβ, 0.1 μg of pGV-ERE, and 0.35 μl of Lipofectin mixed together, and added to the above HeLa cells. The HeLa cells were then cultured for 6 hours at 37° C. in the presence of 5% CO2. Next, the medium was exchanged with Eagle's MEM medium containing 10% serum (active charcoal-treated), and the cultivation was continued overnight at 37° C. under 5% CO2. Furthermore, the medium was exchanged with Eagle's MEM medium containing 10% serum (active charcoal-treated) which had been further supplemented with a solution of a test compound in DMSO (or DMSO alone) and 17β-estradiol (final concentration: 100 pM for the α-isoform, and 1 nM for the β-isoform), and the cells were cultured for 48 hours. After removing the medium and washing the cells twice with PBS(−), 50 μl/well of a lysis solution was added, and the cells were lysed at room temperature. An aliquot of this cell lysate was mixed with a luciferase assay substrate solution (Toyo Ink Mfg. Co., Ltd.), and the luminescence was measured using a luminometer. For each of α- and β-isoforms of estrogen receptor, the relative value of luminescence obtained in each experiment in which 17β-estradiol and a solution of one of test compounds in DMSO were added was then calculated, considering the luminescence obtained when 17β-estradiol and DMSO were added as 100. Next, the antiestrogenic activity (β/α) was calculated by dividing the relative value thus obtained for the β-isoform by that for the α-isoform.

| Compound | ALP activity, relative value considering the value for control as 1 ([1]; compound 0.1 μM) | TGFβ, relative value considering the value for control as 1 ([1]; compound 0.1 μM) | ALP activity, relative value considering the value for control as 1 ([1]; compound 1 μM) | TGFβ, relative value considering the value for control as 1 ([1]; compound 1 μM) | Bone mineral density (ovariectomized rats; 50 mg/kg-weight/day oral) | Antiestrogenic activity (β/α) ([2]; compound 0.1 μM) | Antiestrogenic activity (β/α) ([2]; compound 1 μM) | Antiestrogenic activity (β/α) ([2]; compound 10 μM) | Bone mineral density (ovariectomized rats; 0.1 mg/kg-weight/day oral) |
| --- | --- | --- | --- | --- | --- | --- | --- | --- | --- |
| Cc1cc(C(c2ccc(OCCN(C)C)cc2)c2cc(C)c(O)cc2C)c(C)cc1O [Compound 1, bis(2,5-dimethyl-4-hydroxyphenyl)[4-(2-dimethylamino-1-ethoxy)phenyl]methane] | 2.0 | 1.4 | 5.4 | 1.1 | 88.0* mg/cm^2 | 5.2 | 8.6 | 3.0 |  |
| Cc1cc(C(c2cccc(OCCN(C)C)c2)c2cc(C)c(O)c(C)c2C)c(C)c(C)c1O [Compound 3] |  |  |  |  |  | 2.6 | 4.0 | 2.0 |  |
| Cc1cc(C(c2ccc(OCCN(C)C)cc2)c2cc(C)c(O)c(C)c2)cc(C)c1O [Compound 4] |  |  |  |  |  | 1.5 | 14 | 5.0 |  |
| Cc1cc(C(c2cccc(OCCN(C)C)c2)c2cc(C)c(O)cc2C)c(C)cc1O [Compound 2, bis(2,5-dimethyl-4-hydroxyphenyl)[3-(2-dimethylamino-1-ethoxy)phenyl]methane] | 1.5 |  |  |  | 91.2* mg/cm^2 | 19 | 5.5 | 2.3 |  |
| C#C[C@]1(O)CC[C@H]2[C@@H]3CCc4cc(O)ccc4[C@H]3CC[C@@]21C [ethinyl estradiol, reference compound] |  |  |  |  |  |  |  |  | 88.6* mg/cm^2 |
| Cc1cc(C(c2cccc(OCCN(C)C)c2)c2cc(C)c(O)c(C)c2)cc(C)c1O [Compound 5] |  |  |  |  |  |  | 8.4 | 5.0 |  |
| Hydroxytamoxifen [reference compound] |  |  |  |  |  | 1.3 | 1.9 | 1.5 |  |
